In one series the test system is RIN-m cells. Description: Cellular uptake of fluorescent corrole, fluorescence microscopy, RIN-m cells. The format is cell-based. The settings on record: 20 μM, half an hour at 37° C. The text has this:
(§1) For testing cellular membrane penetration, as well as uptake and accumulation of corroles in the cells, we took advantage of the fluorescence property of an appropriate corrole. For this purpose we used a fluorescent corrole complex (1C-Ga) that is structurally identical to the catalytic compounds utilized in the cytoprotection/cytorescue experiments, except that the chelated metal is gallium(III) rather than iron(III) in 1C-Fe or manganese(III) in 1C-Mn. The results are shown in FIGS. 21A-D for RIN-m (insulinoma) cell line and FIGS. 22A-D for SH-SY5Y (neuroblastoma) cell line.
(§2) To visualize intracellular corrole we used fluorescence microscopy. Neuroblastoma SH-SY5Y cells and insulinoma RIN-m cells were plated on coverslips. At 24 h after plating, corrole 1C-Ga was added directly to the cell media and incubated for half an hour at 37° C. The cells were then aspirated from the media and washed with phosphate buffer to eliminate background signal due to extra cellular corrole. Fixation with formaldehyde was performed. Coverslips with mounting medium (with DAPI) were directly placed on slides and viewed by fluorescence microscopy; the results are shown in FIGS. 21, 22.

The subject of the next series is SH-SY5Y cells. Description: Cellular uptake of fluorescent corrole, fluorescence microscopy, SH-SY5Y cells. It counts as cell-based, human. The settings on record: 20 μM, half an hour at 37° C.
From the text: as §1, §2

The nature of series [1]: In-vivo fluorescence imaging of corrole in nude mice (IVIS 200). The settings on record: 19 mg/kg i.p., 30 min after injection. The procedure: For obtaining information about in-vivo localization and distribution of the various corroles that have sulfonic acid head groups, in-vivo imaging of corroles in whole animals was performed. Of particular interest was to examine whether the leading corrole compounds unlike most porphyrins are able to cross the blood brain barrier (BBB).
The in vivo imaging experiments were performed as follows. Nude mice received i.p. injections of the fluorescent gallium(III) corrole 1C-Ga and were examined by IVIS 200 imaging system [Xenogen].

Entries after “also recorded” stand apart in the source; their conditions may differ.

Consider “2,17-bis(sulfonato)-5,10,15-tris(pentafluorophenyl)-corrolato galium(III) [1C-Ga]”, for which the “cellular uptake and accumulation” value in the series on RIN-m cells and in the series with SH-SY5Y cells was “accumulation inside the cells” each time. The “BBB penetration / accumulation in brain area” value in series [1] was “possible BBB penetration and accumulation of the corrole complex in brain area; also recorded: indicative of the crossing of the blood brain barrier (BBB)”.

For the origin of these results see patent US20140045809A1, “CORROLES FOR NEUROPROTECTION AND NEURORESCUE” (priority 2008, published 2014).
